The supplement of paper PMC4862054

tested on: HCC1599; assay: drug sensitivity score (DSS), CellTiter-Glo (DSS (AUC-based score)); higher = stronger drug effect (viability inhibition or cytotoxicity); extreme values may be limits of the assay; conditions: incubation time: 72 h
Procedure, shortened: (§1)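 Plates with 384 wells held compound at 5 concentrations in 10-fold steps over a 10,000-fold range specific to each compound. Breast cancer cell lines were added in 20 µl suspension and incubated 72 h, then read for CellTox Green and CellTiter-Glo signals, with each plate normalised to 0.1 % DMSO and a positive kill control. The drug sensitivity score is based on the area under the fitted dose-response curve.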

| Structure (SMILES) | drug sensitivity score |
| --- | --- |
| CCn1c(C(=O)N(C2CC2)C2CC2)cc2c3c(ncn3C)c(Nc3cc(C)n(C)n3)nc21 | 0 |
| COc1ccc(S(=O)(=O)Nc2cccnc2Nc2ccc(O)cc2)cc1 [ABT-751] | 11.2 |
| CN[C@@H](C)C(=O)N[C@H]1CN(C(=O)CC(C)C)CC[C@H]2CC[C@@H](C(=O)NC(c3ccccc3)c3ccccc3)N2C1=O [AT-406] | 0 |
| Cc1cc(Nc2nc(N[C@@H](C)c3ncc(F)cn3)ncc2Cl)[nH]n1 [AZD1480] | 0 |
| CC1(COc2ccc3c(c2)ncn3-c2ccc3cccc(N4CCC(N)CC4)c3n2)COC1 [Crenolanib] | 0.696 |
| CC(C)(C)c1nc(-c2cccc(NS(=O)(=O)c3c(F)cccc3F)c2F)c(-c2ccnc(N)n2)s1 [Dabrafenib] | 0 |
| Cc1nc(C(=O)NCC(=O)O)c(O)c2ccc(Oc3ccccc3)cc12 [FG-4592] | 0 |
| O=C(O)CNC(=O)c1c(O)c2ccccc2n(Cc2ccccc2)c1=O [IOX-2] | 0 |
| CN(C)C(=N)NC(=N)N [Metformin] | 0 |
| CC[C@H](CO)Nc1nc(NCc2ccccc2)c2ncn(C(C)C)c2n1 [Seliciclib] | 0 |
| C=CCN(/C=C1/C(=O)O[C@H](COC)[C@@]2(C)C1=C(O)C(=O)C1=C2[C@H](OC(C)=O)C[C@]2(C)C(=O)CC[C@@H]12)CC=C [Sonolisib] | 0 |
| O=[N+]([O-])c1ccc2c(c1)S(=O)(=O)C=C2 [Stattic] | 7.71 |
| CC(C)n1cnc2c(NCCc3ccc(O)cc3)nc(-c3csc4ccccc34)nc21 [StemRegenin 1] | 0 |

tested on: HCC1937; assay: as above; conditions: incubation time: 72 h
Procedure, shortened: as §1

| Structure (SMILES) | drug sensitivity score |
| --- | --- |
| CCn1c(C(=O)N(C2CC2)C2CC2)cc2c3c(ncn3C)c(Nc3cc(C)n(C)n3)nc21 | 0 |
| COc1ccc(S(=O)(=O)Nc2cccnc2Nc2ccc(O)cc2)cc1 [ABT-751] | 2.93 |
| CN[C@@H](C)C(=O)N[C@H]1CN(C(=O)CC(C)C)CC[C@H]2CC[C@@H](C(=O)NC(c3ccccc3)c3ccccc3)N2C1=O [AT-406] | 0 |
| Cc1cc(Nc2nc(N[C@@H](C)c3ncc(F)cn3)ncc2Cl)[nH]n1 [AZD1480] | 0 |
| CC1(COc2ccc3c(c2)ncn3-c2ccc3cccc(N4CCC(N)CC4)c3n2)COC1 [Crenolanib] | 0.864 |
| CC(C)(C)c1nc(-c2cccc(NS(=O)(=O)c3c(F)cccc3F)c2F)c(-c2ccnc(N)n2)s1 [Dabrafenib] | 0 |
| Cc1nc(C(=O)NCC(=O)O)c(O)c2ccc(Oc3ccccc3)cc12 [FG-4592] | 0 |
| O=C(O)CNC(=O)c1c(O)c2ccccc2n(Cc2ccccc2)c1=O [IOX-2] | 0 |
| CN(C)C(=N)NC(=N)N [Metformin] | 0 |
| CC[C@H](CO)Nc1nc(NCc2ccccc2)c2ncn(C(C)C)c2n1 [Seliciclib] | 0 |
| C=CCN(/C=C1/C(=O)O[C@H](COC)[C@@]2(C)C1=C(O)C(=O)C1=C2[C@H](OC(C)=O)C[C@]2(C)C(=O)CC[C@@H]12)CC=C [Sonolisib] | 0 |
| O=[N+]([O-])c1ccc2c(c1)S(=O)(=O)C=C2 [Stattic] | 15.3 |
| CC(C)n1cnc2c(NCCc3ccc(O)cc3)nc(-c3csc4ccccc34)nc21 [StemRegenin 1] | 1.53 |

tested on: HDQ-P1; assay: as above; conditions: incubation time: 72 h
Procedure, shortened: as §1

| Structure (SMILES) | drug sensitivity score |
| --- | --- |
| CCn1c(C(=O)N(C2CC2)C2CC2)cc2c3c(ncn3C)c(Nc3cc(C)n(C)n3)nc21 | 0 |
| COc1ccc(S(=O)(=O)Nc2cccnc2Nc2ccc(O)cc2)cc1 [ABT-751] | 5.44 |
| CN[C@@H](C)C(=O)N[C@H]1CN(C(=O)CC(C)C)CC[C@H]2CC[C@@H](C(=O)NC(c3ccccc3)c3ccccc3)N2C1=O [AT-406] | 2.18 |
| Cc1cc(Nc2nc(N[C@@H](C)c3ncc(F)cn3)ncc2Cl)[nH]n1 [AZD1480] | 0 |
| CC1(COc2ccc3c(c2)ncn3-c2ccc3cccc(N4CCC(N)CC4)c3n2)COC1 [Crenolanib] | 3.33 |
| CC(C)(C)c1nc(-c2cccc(NS(=O)(=O)c3c(F)cccc3F)c2F)c(-c2ccnc(N)n2)s1 [Dabrafenib] | 0 |
| Cc1nc(C(=O)NCC(=O)O)c(O)c2ccc(Oc3ccccc3)cc12 [FG-4592] | 0 |
| O=C(O)CNC(=O)c1c(O)c2ccccc2n(Cc2ccccc2)c1=O [IOX-2] | 0 |
| CN(C)C(=N)NC(=N)N [Metformin] | 0 |
| CC[C@H](CO)Nc1nc(NCc2ccccc2)c2ncn(C(C)C)c2n1 [Seliciclib] | 0 |
| C=CCN(/C=C1/C(=O)O[C@H](COC)[C@@]2(C)C1=C(O)C(=O)C1=C2[C@H](OC(C)=O)C[C@]2(C)C(=O)CC[C@@H]12)CC=C [Sonolisib] | 0 |
| O=[N+]([O-])c1ccc2c(c1)S(=O)(=O)C=C2 [Stattic] | 6.75 |
| CC(C)n1cnc2c(NCCc3ccc(O)cc3)nc(-c3csc4ccccc34)nc21 [StemRegenin 1] | 1.2 |

tested on: Hs578T; assay: as above; conditions: incubation time: 72 h
Procedure, shortened: as §1

| Structure (SMILES) | drug sensitivity score |
| --- | --- |
| CCn1c(C(=O)N(C2CC2)C2CC2)cc2c3c(ncn3C)c(Nc3cc(C)n(C)n3)nc21 | 0 |
| COc1ccc(S(=O)(=O)Nc2cccnc2Nc2ccc(O)cc2)cc1 [ABT-751] | 10.9 |
| CN[C@@H](C)C(=O)N[C@H]1CN(C(=O)CC(C)C)CC[C@H]2CC[C@@H](C(=O)NC(c3ccccc3)c3ccccc3)N2C1=O [AT-406] | 0 |
| Cc1cc(Nc2nc(N[C@@H](C)c3ncc(F)cn3)ncc2Cl)[nH]n1 [AZD1480] | 0 |
